The text below walks through data of patent US20200247812A1 (Integral Biosciences Private Limited, priority 2018, published 2020).

For experiment [1], the system named is phosphorylation of Smad-2 in THP-1 cells. Kind of experiment: Inhibition of phosphorylation of Smad-2 in THP-1 cells (Phospho-Smad2 ELISA). In kind it is cell-based. (In an ELISA, binding on a coated surface is turned into a signal by an enzyme label.)
For the next experiment, the target named is T1, ALK 5 (Homo sapiens, UniProt P36897).
T1 sequence (P36897 34-503): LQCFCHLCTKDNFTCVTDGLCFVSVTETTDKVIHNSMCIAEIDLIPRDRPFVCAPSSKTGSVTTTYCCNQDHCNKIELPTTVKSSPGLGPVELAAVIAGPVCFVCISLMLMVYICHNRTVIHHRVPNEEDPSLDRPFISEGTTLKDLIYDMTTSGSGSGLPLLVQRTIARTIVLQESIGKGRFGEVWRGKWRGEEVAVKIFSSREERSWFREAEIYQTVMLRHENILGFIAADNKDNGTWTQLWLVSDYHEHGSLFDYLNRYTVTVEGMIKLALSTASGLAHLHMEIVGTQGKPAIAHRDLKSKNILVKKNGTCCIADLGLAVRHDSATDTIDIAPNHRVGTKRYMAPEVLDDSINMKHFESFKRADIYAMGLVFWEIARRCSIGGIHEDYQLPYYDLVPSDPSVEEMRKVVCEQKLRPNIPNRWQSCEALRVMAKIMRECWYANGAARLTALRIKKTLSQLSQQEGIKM
Description: In vitro kinase assay (ALK5 IC50, LanthaScreen Terbium labeled TR-FRET). In kind it is biochemical. The conditions noted are these: TGF-β kinase 6 nM, ATP 10 μM, read-out: Enzyme Activity ALK 5 IC50. In short, it runs like this: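 LanthaScreen Tb TR-FRET: ALK5 (6 nM) preincubated 10 min with 3-fold diluted compounds, then 10 μM ATP and 200 nM fluorescent PolyGT substrate added for 1 h at room temperature. Stopped with EDTA/Tb antibody; 520/495 nm emission read. IC50 from four-parameter fit versus DMSO and no-enzyme controls.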

The subject of another experiment is HCT116. Kind of experiment: Cell viability assay (resazurin), HCT116. In kind it is cell-based. The conditions noted are these: Homo sapiens, HCT-116, 72-144 hr. The protocol: (§1) Different cell lines such as pancreatic, (MIA PaCa-2; ATCC®CRL-1420™ & and Panc-1; CRL-1469™), liver carcinoma (HepG2; ATCC® HB-8065™), lung epithelial carcinoma (A549; ATCC® CCL-185™) and others were seeded in their respective medium (DMEM, Cat #10569044, MEM, Cat #41090036; RPMI, Cat #22400089; all with 10% FBS, Gibco, ThermoFisher) at a cell count of 3000 cells per 100 μl per well in a 96 well edge plate (167425; ThermoFisher). Cells were allowed to grow at 37° C. for 24 hr in 5% CO2 (culture conditions) in a Nuaire incubator (humidified). Serially diluted compounds (100 μl) were added to the culture plate 24 hr later and the cultures were further incubated in culture conditions for specified time depending on doubling time of specific cell line (ranging from 72-144 hr). Experiment was terminated at the completion of incubation time with the drug by replacing the medium with 100 μl of 1 mM of resazurin (R7017; Sigma) prepared in respective culture medium and the plates were further incubated in culture conditions for 4 hr. Fluorescence was then measured using a multimodal plate reader (Biotek Synergy Neo) at an excitation wavelength of 535 nm and emission wavelength of 590 nm to obtain relative fluorescence units. Data analysis was done by subtracting the background fluorescence (only medium blank) value from each reading and then normalizing with the vehicle control (DMSO treated cells) to obtain percent survival/proliferation. Percent survival at different doses was used to calculate IC50 by fitting the curve to the “four-parameter variable slope logistic model” using Prism Graph Pad.

A further experiment relates to A427. Description: Cell viability assay (resazurin), A427. To be noted: Homo sapiens, A-427, 72-144 hr. In kind it is cell-based. The protocol:
as §1
(In general: Resazurin is reduced to fluorescent resorufin, in cell work by metabolically active cells.)

The test system of the next experiment is MDA_MB-231. Description: Cell viability assay (resazurin), MDA_MB-231. In kind it is cell-based. The conditions noted are these: Homo sapiens, MDA-MB-231, 72-144 hr. The protocol:
as §1

Another experiment has as its system MV-4-11. Description: Cell viability assay (resazurin), MV-4-11. It counts as cell-based. To be noted: Homo sapiens, MV4-11, 72-144 hr. The protocol: as §1
For the next experiment, the system named is MCF7. Kind of experiment: Cell viability assay (resazurin), MCF7. In kind it is cell-based. The conditions noted are these: Homo sapiens, 72-144 hr. The protocol:
as §1

In a further experiment the test system is THP1. Description: Cell viability assay (resazurin), THP1. To be noted: Homo sapiens, THP-1, 72-144 hr. In kind it is cell-based. The protocol: as §1
Another experiment deals with HepG2. Description: Cell viability assay (resazurin), HepG2. To be noted: Homo sapiens, 72-144 hr. It counts as cell-based. The protocol: as §1
Another experiment has as its system A549. Description: Cell viability assay (resazurin), A549. In kind it is cell-based. To be noted: Homo sapiens, 72-144 hr. The protocol:
as §1

Another experiment deals with Panc-10.05. Kind of experiment: Cell viability assay (resazurin), Panc-10.05. To be noted: Homo sapiens, Panc1005, 72-144 hr. It counts as cell-based. The protocol:
as §1

Another experiment relates to AsPC-1. Kind of experiment: Cell viability assay (resazurin), AsPC-1. It counts as cell-based. The conditions noted are these: Homo sapiens, ASPC1, 72-144 hr. The protocol: as §1

Each structure is given as a SMILES string.

For orientation: IC50 means the concentration at which inhibition is half-maximal. Turning to `CC(C)c1[nH]c(=O)c(-c2cc(Cl)ccc2F)cc1Nc1ccncc1C(=O)NC[C@H](C)O` [Compound 1.5, (S)-4-((5-(5-chloro-2-fluorophenyl)-2-isopropyl-6-oxo-1,6-dihydropyridin-3-yl)amino)-N-(2-hydroxypropyl)nicotinamide], the “% Inhibition of pSmad2” value in [1] (3 μg) turned out to be 47.3%; in [1] (10 μg), 53.3%. Further, at ALK 5, the half-inhibitory concentration (IC50) was at most 0.5 µM.
Regarding `CC(=O)Nc1cc(Nc2cc(-c3cc(Cl)ccc3F)c(=O)[nH]c2C2CC2)ccn1` [Compound 1.69, N-(4-((5-(5-chloro-2-fluorophenyl)-2-cyclopropyl-6-oxo-1,6-dihydropyridin-3-yl)amino)pyridin-2-yl)acetamide], the concentration for half-maximal inhibition (IC50) in the experiment on HCT116 was above 30 µM; in the experiment with A427, above 30 µM; with MDA_MB-231, 15.3 µM; in the experiment on MV-4-11 it was 16.3 µM; in the experiment on MCF7, 18.7 µM; at ALK 5, at most 0.5 µM. Besides, the IC50 in the experiment with THP1 worked out at 13 µM; with HepG2 it was 15.7 µM.
For `CC(=O)Nc1cc(Nc2cc(-c3cc(Cl)ccc3F)c(=O)[nH]c2N(C)C)ccn1` [Compound 1.40, N-(4-((5-(5-chloro-2-fluorophenyl)-2-(dimethylamino)-6-oxo-1,6-dihydropyridin-3-yl)amino)pyridin-2-yl)acetamide], the IC50 is 13.4 µM with HCT116; 15.2 µM with A427; 12.6 µM in the experiment with MDA_MB-231; 28.5 µM with A549; at most 0.5 µM at ALK 5; 6.09 µM with THP1. Also, the half-inhibitory concentration (IC50) in the experiment on HepG2 was 12.6 µM; in the experiment on Panc-10.05, 28.5 µM.
In the case of `CCc1[nH]c(=O)c(-c2cc(Cl)ccc2F)cc1Nc1ccnc(NC(C)=O)c1` [Compound 1.70, N-(4-((5-(5-chloro-2-fluorophenyl)-2-ethyl-6-oxo-1,6-dihydropyridin-3-yl)amino)pyridin-2-yl)acetamide], the IC50 in the experiment on HCT116 is above 30 µM; in the experiment with A427, above 30 µM; with MDA_MB-231, above 30 µM; with MV-4-11 it was 29.2 µM; in the experiment on MCF7, above 30 µM; on ALK 5, at most 0.5 µM. Besides, the IC50 was above 30 µM with THP1 and 18.2 µM in the experiment on HepG2.
For the compound `COC(=O)c1cnccc1Nc1cc(-c2cc(Cl)ccc2F)c(=O)[nH]c1N(C)C` [Compound 1.29, methyl 4-((5-(5-chloro-2-fluorophenyl)-2-(dimethylamino)-6-hydroxypyridin-3-yl)amino)nicotinate], the IC50 in the experiment on HCT116 is above 30 µM; on ALK 5, 0.5 to 2 µM.
With `CN(C)c1[nH]c(=O)c(-c2cc(Cl)ccc2F)cc1Nc1ccncc1C(N)=O` [Compound 1.32, 4-((5-(5-chloro-2-fluorophenyl)-2-(dimethylamino)-6-hydroxypyridin-3-yl)amino)nicotinamide], the IC50 in the experiment with HCT116 is above 30 µM; in the experiment with A427, above 30 µM; in the experiment on AsPC-1, above 30 µM; in the experiment on MDA_MB-231, above 30 µM; with MCF7, above 10 µM; with A549, above 30 µM. Also, the IC50 at ALK 5 is at most 0.5 µM; in the experiment on Panc-10.05 it was above 30 µM. Besides, the “% Inhibition of pSmad2” value in [1] (3 μg) is recorded as 51.3%; in experiment [1] (10 μg), 50.5%.
As for `C[C@H](O)CNC(=O)c1cnccc1Nc1cc(-c2cc(Cl)ccc2F)c(=O)[nH]c1N(C)C` [Compound 1.9, (S)-4-((5-(5-chloro-2-fluorophenyl)-2-(dimethylamino)-6-hydroxypyridin-3-yl)amino)-N-(2-hydroxypropyl)nicotinamide], at ALK 5, the IC50 lay within 2 to 5 µM.
Still for that read-out and setting: under `CCc1[nH]c(=O)c(-c2ccc(F)c(Cl)c2)cc1Nc1ccnc2ccncc12` [Compound 1.87, 5-((1,6-naphthyridin-4-yl)amino)-3-(3-chloro-4-fluorophenyl)-6-ethylpyridin-2(1H)-one] stands at most 0.5 µM; under `CC(C)c1[nH]c(=O)c(-c2cc(Cl)ccc2F)cc1Nc1ncnc2c1CC(=O)N2` [Compound 1.78, 4-((5-(5-chloro-2-fluorophenyl)-2-isopropyl-6-oxo-1,6-dihydropyridin-3-yl)amino)-5,7-dihydro-6H-pyrrolo[2,3-d]pyrimidin-6-one], at most 0.5 µM; under `CC(C)c1[nH]c(=O)c(-c2ccccc2F)cc1Nc1ccncc1C(=O)NC[C@H](C)O` [Compound 1.3, (S)-4-((5-(2-fluorophenyl)-2-isopropyl-6-oxo-1,6-dihydropyridin-3-yl)amino)-N-(2-hydroxypropyl)nicotinamide], 2 to 5 µM.
Turning to `CC(C)c1[nH]c(=O)c(-c2cc(Cl)ccc2F)cc1Nc1ccnc(NS(C)(=O)=O)c1` [Compound 1.63, N-(4-((5-(5-chloro-2-fluorophenyl)-2-isopropyl-6-oxo-1,6-dihydropyridin-3-yl)amino)pyridin-2-yl)methanesulfonamide], at ALK 5, the half-inhibitory concentration (IC50) was above 5 µM.
For `CSc1[nH]c(=O)c(-c2cc(Cl)ccc2F)cc1Nc1ccnc2ccncc12` [Compound 1.36, 5-((1,6-naphthyridin-4-yl)amino)-3-(5-chloro-2-fluorophenyl)-6-(methylthio)pyridin-2(1H)-one], on ALK 5, the 50% inhibitory concentration (IC50) is at most 0.5 µM.
Turning to `CC(C)c1[nH]c(=O)c(-c2cc(Cl)ccc2F)cc1Nc1ccnc(NC(=O)CN2CCCC2)c1` [Compound 1.47, N-(4-((5-(5-chloro-2-fluorophenyl)-2-isopropyl-6-oxo-1,6-dihydropyridin-3-yl)amino)pyridin-2-yl)-2-(pyrrolidin-1-yl)acetamide], the IC50 at ALK 5 was at most 0.5 µM.
Same read-out and setting: under `C[C@@H](CO)NC(=O)c1cnccc1Nc1cc(-c2cc(Cl)ccc2F)c(=O)n2c1N(C)CC2` [Compound 1.22, (S)-4-((6-(5-chloro-2-fluorophenyl)-1-methyl-5-oxo-1,2,3,5-tetrahydroimidazo[1,2-a]pyridin-8-yl)amino)-N-(1-hydroxypropan-2-yl)nicotinamide] stands 2 to 5 µM; under `CN(C)c1[nH]c(=O)c(-c2cc(Cl)ccc2F)cc1Nc1ccncc1C(=O)NC(C)(C)CO` [Compound 1.31, 4-((5-(5-chloro-2-fluorophenyl)-2-(dimethylamino)-6-hydroxypyridin-3-yl)amino)-N-(1-hydroxy-2-methylpropan-2-yl)nicotinamide], above 5 µM; under `CN(C)c1[nH]c(=O)c(-c2cc(Cl)ccc2F)cc1Nc1ccncc1C1=NCCN1` [Compound 1.35, 3-(5-chloro-2-fluorophenyl)-5-((3-(4,5-dihydro-1H-imidazol-2-yl)pyridin-4-yl)amino)-6-(dimethylamino)pyridin-2(1H)-one], 2 to 5 µM.
